In ChEMBL document CHEMBL4251692, “Dual GSK-3β/AChE Inhibitors as a New Strategy for Multitargeting Anti-Alzheimer's Disease Drug Discovery” (ACS Med Chem Lett, 2018):
The source made the active and inactive calls. No cut-off for these calls is given here.

Tests used:
[1] = target: Glycogen synthase kinase-3 beta (Homo sapiens, UniProt P49841); experiment: Inhibition of recombinant human full length N-terminal GST-tagged GSK-3beta expressed in Sf9 insect cells using prephosphorylated polypeptide as substrate after 30 mins by kinase-Glo reagent based luminescence assay
Glycogen synthase kinase-3 beta, sequence (P49841 whole entry): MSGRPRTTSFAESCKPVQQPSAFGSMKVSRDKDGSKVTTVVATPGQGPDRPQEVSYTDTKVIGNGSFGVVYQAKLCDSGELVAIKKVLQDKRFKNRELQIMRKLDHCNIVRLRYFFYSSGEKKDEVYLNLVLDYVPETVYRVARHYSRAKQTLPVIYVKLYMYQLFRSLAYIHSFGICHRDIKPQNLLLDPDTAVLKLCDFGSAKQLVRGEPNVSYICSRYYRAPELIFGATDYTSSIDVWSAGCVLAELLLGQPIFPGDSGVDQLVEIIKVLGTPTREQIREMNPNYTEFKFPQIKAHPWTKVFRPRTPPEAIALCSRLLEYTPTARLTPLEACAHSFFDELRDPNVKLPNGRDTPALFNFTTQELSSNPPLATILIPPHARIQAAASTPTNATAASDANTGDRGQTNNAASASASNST

Cholinesterase [2] = target: Cholinesterase (Equus caballus, UniProt P81908); experiment: Inhibition of horse serum BuChE using butyrylthiocholine iodide as substrate incubated for 5 mins followed by substrate addition measured after 2 mins by Ellman's method
Cholinesterase (Equus caballus, UniProt P81908), sequence (P81908 whole entry): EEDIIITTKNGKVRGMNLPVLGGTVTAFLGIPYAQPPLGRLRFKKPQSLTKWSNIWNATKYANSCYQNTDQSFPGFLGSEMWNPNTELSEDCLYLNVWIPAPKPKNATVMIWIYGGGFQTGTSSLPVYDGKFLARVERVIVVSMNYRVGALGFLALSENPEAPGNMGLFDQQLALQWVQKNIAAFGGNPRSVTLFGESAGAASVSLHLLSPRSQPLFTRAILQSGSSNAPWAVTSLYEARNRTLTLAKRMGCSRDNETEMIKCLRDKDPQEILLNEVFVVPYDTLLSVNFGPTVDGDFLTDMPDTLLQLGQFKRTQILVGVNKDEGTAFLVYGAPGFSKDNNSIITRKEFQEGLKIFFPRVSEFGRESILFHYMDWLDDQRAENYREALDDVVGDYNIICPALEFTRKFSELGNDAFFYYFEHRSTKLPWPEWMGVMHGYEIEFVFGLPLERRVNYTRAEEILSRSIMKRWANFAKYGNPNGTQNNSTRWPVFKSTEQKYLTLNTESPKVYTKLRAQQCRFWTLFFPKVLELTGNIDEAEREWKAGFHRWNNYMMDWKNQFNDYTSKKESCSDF

Acetylcholinesterase [3] = target: T1, Acetylcholinesterase (Homo sapiens, UniProt P22303); experiment: Inhibition of human AChE using acetylthiocholine iodide as substrate incubated for 20 mins followed by substrate addition measured after 2 mins by Ellman's method
T1 sequence (P22303 whole entry): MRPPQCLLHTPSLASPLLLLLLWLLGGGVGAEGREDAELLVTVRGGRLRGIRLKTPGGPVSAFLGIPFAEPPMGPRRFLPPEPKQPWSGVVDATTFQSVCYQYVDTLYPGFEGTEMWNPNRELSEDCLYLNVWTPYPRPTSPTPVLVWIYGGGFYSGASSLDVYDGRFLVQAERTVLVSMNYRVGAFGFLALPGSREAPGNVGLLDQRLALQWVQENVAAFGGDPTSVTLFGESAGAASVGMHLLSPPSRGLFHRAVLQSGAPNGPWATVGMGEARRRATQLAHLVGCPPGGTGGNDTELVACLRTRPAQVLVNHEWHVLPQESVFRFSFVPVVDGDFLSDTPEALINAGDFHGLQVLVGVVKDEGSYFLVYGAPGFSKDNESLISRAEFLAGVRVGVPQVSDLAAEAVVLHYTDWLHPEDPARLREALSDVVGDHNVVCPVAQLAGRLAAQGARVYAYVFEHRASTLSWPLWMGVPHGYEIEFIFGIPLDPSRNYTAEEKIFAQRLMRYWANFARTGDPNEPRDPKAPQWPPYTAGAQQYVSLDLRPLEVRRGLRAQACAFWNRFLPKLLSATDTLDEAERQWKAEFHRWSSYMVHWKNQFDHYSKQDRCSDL

SH-SY5Y = experiment: Cytotoxicity against human SH-SY5Y cells assessed as reduction in cell viability after 48 hrs by MTT assay; assay type: cell-based
Mus musculus = experiment: Cognition enhancing effect in scopolamine-induced ICR mouse assessed as decrease in distance to target at 15 mg/kg, po administered 30 mins prior to scopolamine injection for 10 consecutive days followed by testing on day 11 post 30 mins scopolamine treatment by Morris water maze test; assay type: functional, organism-based
Cholinesterase [4] = target: Cholinesterase (Homo sapiens, UniProt P06276); experiment: Inhibition of human BuChE using butyrylthiocholine iodide as substrate incubated for 20 mins followed by substrate addition measured after 2 mins by Ellman's method
Cholinesterase (Homo sapiens, UniProt P06276), sequence (P06276 whole entry): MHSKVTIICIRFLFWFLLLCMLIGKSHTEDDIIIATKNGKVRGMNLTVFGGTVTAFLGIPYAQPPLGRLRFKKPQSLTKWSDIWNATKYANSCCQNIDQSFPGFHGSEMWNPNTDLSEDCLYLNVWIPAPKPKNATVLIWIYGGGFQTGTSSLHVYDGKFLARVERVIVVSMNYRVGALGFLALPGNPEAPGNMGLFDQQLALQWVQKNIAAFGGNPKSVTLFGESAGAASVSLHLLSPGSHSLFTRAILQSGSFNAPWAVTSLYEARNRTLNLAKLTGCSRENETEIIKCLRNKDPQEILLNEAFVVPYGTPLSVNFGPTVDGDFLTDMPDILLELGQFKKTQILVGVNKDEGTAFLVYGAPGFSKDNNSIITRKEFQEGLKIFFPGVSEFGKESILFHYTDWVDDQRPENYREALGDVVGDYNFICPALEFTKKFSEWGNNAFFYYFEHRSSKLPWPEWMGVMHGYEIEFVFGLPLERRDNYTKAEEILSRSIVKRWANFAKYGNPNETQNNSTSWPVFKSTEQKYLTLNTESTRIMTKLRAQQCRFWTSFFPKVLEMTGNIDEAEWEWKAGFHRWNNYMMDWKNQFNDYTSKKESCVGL

Homo sapiens = species on record: Homo sapiens; experiment: Selectivity index, ratio of IC50 for human AChE to IC50 for human BuChE
N2a = experiment: Effect on total tau protein level in mouse N2A cells at 10 to 30 uM after 6 hrs by Western blot analysis; assay type: cell-based
Acetylcholinesterase [5] = target: T1, Acetylcholinesterase; experiment: Mixed/non-competitive inhibition of human AChE using varying levels of acetylthiocholine iodide as substrate at 1 to 20 nM incubated for 20 mins by Lineweaver-Burk plot analysis
HepG2 = experiment: Cytotoxicity against human HepG2 cells assessed as reduction in cell viability after 24 hrs by MTT assay; assay type: cell-based; conditions: HepG2, 24 h
[6] = target: Glycogen synthase kinase-3 beta (Mus musculus) (UniProt Q9WV60); experiment: Inhibition of GSK-3beta in mouse N2A cells assessed as reduction in tau hyperphosphorylation at Ser396 residues at 10 uM after 6 hrs by Western blot analysis; assay type: cell-based
Glycogen synthase kinase-3 beta (Mus musculus), sequence (Q9WV60 whole entry, looked up): as the sequence (P49841 whole entry) above, with T390P, T392A, A400T, T402A counted along it

Row | Structure (SMILES) | IC50 [1] [nM] | IC50 (Cholinesterase [2]) [nM] | IC50 (Acetylcholinesterase [3]) [nM] | IC50 (SH-SY5Y) [nM] | Activity (Mus musculus) | IC50 (Cholinesterase [4]) [nM] | Ratio IC50 (Homo sapiens) | Activity (N2a) | inhibition (Acetylcholinesterase [5]) | IC50 (HepG2) [nM] | inhibition [6]
1 | COc1nc(-c2ccnc(NC(=O)C3CC3)c2)sc1C(=O)NCCNc1c2c(nc3cc(Cl)ccc13)CCCC2 | 63 | 410 | 2.1 | 2300 |  |  |  |  |  |  | 
2 | COc1nc(-c2ccnc(NC(=O)C3CC3)c2)sc1C(=O)NCCCCCCNc1c2c(nc3ccccc13)CCCC2 | 18 |  | 22 | 30000 | Active | 100 |  |  |  |  | 
3 | O=C(O)c1sc(-c2ccnc(NC(=O)C3CC3)c2)nc1OCCNc1c2c(nc3ccccc13)CCCC2 | 270 |  | 580 | 21000 |  | 450 |  |  |  |  | 
4 | COc1nc(-c2ccnc(NC(=O)C3CC3)c2)sc1C(=O)NCCCNc1c2c(nc3cc(Cl)ccc13)CCCC2 | 98 | 290 | 3.6 | 3100 |  |  |  |  |  |  | 
5 | COC(=O)c1sc(-c2ccnc(NC(=O)C3CC3)c2)nc1OCCNc1c2c(nc3ccccc13)CCCC2 | 99 |  | 130 | 13000 | Active | 28 | 4.6 |  |  |  | 
6 | COc1nc(-c2ccnc(NC(=O)C3CC3)c2)sc1C(=O)NCCNc1c2c(nc3ccccc13)CCCC2 | 68 |  | 6.3 | 6300 |  | 51 |  |  |  |  | 
7 | NC(=O)c1sc(-c2ccnc(NC(=O)C3CC3)c2)nc1OCCNc1c2c(nc3ccccc13)CCCC2 | 34 |  | 300 | 19000 |  | 150 |  |  |  |  | 
8 | COc1nc(-c2ccnc(NC(=O)C3CC3)c2)sc1C(=O)NCCCNc1c2c(nc3ccccc13)CCCC2 | 66 |  | 6.4 | 18000 | Active | 260 |  | Non-Toxic | Active | 35000 | Active
9 | CCOC(=O)c1sc(-c2ccnc(NC(=O)C3CC3)c2)nc1OCCNc1c2c(nc3ccccc13)CCCC2 | 180 |  | 310 | 7100 |  | 610 |  |  |  |  | 
10 | COc1ccc2nc3c(c(NCCNC(=O)c4sc(-c5ccnc(NC(=O)C6CC6)c5)nc4OC)c2c1)CCCC3 | 83 | 2100 | 23 | 8900 |  |  |  |  |  |  | 
11 | COc1ccc2nc3c(c(NCCCNC(=O)c4sc(-c5ccnc(NC(=O)C6CC6)c5)nc4OC)c2c1)CCCC3 | 65 | 2300 | 38 | 2900 |  |  |  |  |  |  | 
